# Tests used:
# Type in all cases: cell-based
# fibronectin = test: Extracellular matrix expression by immunofluorescence (confocal, Image J): fibronectin; conditions: human dermal fibroblasts; peptide at 10 µM, 50 µM or 100 µM, 48 hours; green fluorescence intensity; maximum increase (FIG. 2)
# Method: (§1) To confirm the effect of a peptide consisting of the amino acid sequence of SEQ ID NO: 1 on increasing the expression of the dermal extracellular matrix. Specifically, human dermal fibroblasts were seeded in a 6-well plate at a density of 3x10^5 cells/well and cultured for 24 hours. After replacing with serum-free mesenchymal stem cell medium, the cells were cultured for 24 hours. A peptide was treated at concentrations of 10 µM, 50 µM, or 100 µM, respectively, and incubated at 37 °C for 48 hours. Human recombinant FGF protein was treated at 100 nM. After the culture was completed, the culture supernatant was removed and fixed with 4 % paraformaldehyde for 30 minutes. After washing with PBS, the cells were reacted with 0.5 % Triton X-100 for 15 minutes. After reacting with 3 % BSA for 1 hour, primary antibodies against collagen type 1, fibronectin, and elastin were diluted 1:100 and reacted overnight at 4 °C. Secondary antibody-FITC was diluted 1:500 and reacted at room temperature for 2 hours, followed by DAPI staining and mounting. The expression images of each marker were observed using a confocal microscope (Leica, Germany). Green fluorescence intensity was measured using Image J.
# (§2) The results are illustrated in FIG. 2. […]
# human dermal fibroblasts = test: Fibroblast proliferation effect (SRB staining, absorbance at 560 nm); conditions: peptide at 10 µM, 50 µM or 100 µM, 72 hours, 37 °C, concentration-dependent, maximum increase (FIG. 1)
# Method: To confirm the effect of a peptide consisting of the amino acid sequence of SEQ ID NO: 1 on promoting the proliferation of Fibroblasts. Specifically, human dermal fibroblasts were seeded in a 96-well plate at a density of 5x10^3 cells/well and cultured for 24 hours. After replacing with serum-free mesenchymal stem cell medium, the cells were cultured for 24 hours. The above peptide was treated at concentrations of 10 µM, 50 µM, or 100 µM, respectively, and incubated at 37 °C for 72 hours. As a positive control group, 50 nM of human recombinant FGF protein was treated. After completion of culturing, the culture supernatant was removed and the cells were fixed using ethanol. After washing with PBS, staining was performed by treating with SRB solution. After washing with 1 % acetic acid, cells were observed under a microscope and destained by treating with 20 mM tris solution. Cell viability was measured by measuring absorbance at a wavelength of 560 nm using a spectrophotometer (SpectraMax iD3, Molecular Devices (USA, CA)).
# The results are illustrated in FIG. 1. From the results of FIG. 1, it may be confirmed that proliferation was induced in a concentration-dependent manner in the peptide treatment group, increasing by up to 1.62 times.
# elastin = test: Extracellular matrix expression by immunofluorescence (confocal, Image J): elastin; conditions: human dermal fibroblasts; peptide at 10 µM, 50 µM or 100 µM, 48 hours; green fluorescence intensity; maximum increase (FIG. 2)
# Method: as §1, §2
# collagen type 1 = test: Extracellular matrix expression by immunofluorescence (confocal, Image J): collagen type 1; conditions: human dermal fibroblasts; peptide at 10 µM, 50 µM or 100 µM, 48 hours; green fluorescence intensity; maximum increase (FIG. 2)
# Method: as §1, §2
sequence,measurement,setting,value
AERRREKCRC [peptide],fibronectin expression increase compared to the control group,fibronectin,up to 1.38 times
same,proliferation increase,human dermal fibroblasts,up to 1.62 times
same,elastin expression increase compared to the control group,elastin,up to 2 times
same,collagen type 1 expression increase compared to the control group,collagen type 1,up to 1.32 times

# — patent publication EP4692107A1, “PEPTIDE HAVING SKIN CONDITION IMPROVEMENT ACTIVITY AND USE THEREOF” (Caregen Co., Ltd., priority 2023, dated 2026)
